From ChEMBL document CHEMBL5465560, “Selectivity Literature for EUbOPEN Chemogenomic Library” (2024) come the findings set out here.

Test [1] deals with T1, Histone-lysine N-methyltransferase SETD7 (Homo sapiens) (UniProt Q8WTS6).
T1 sequence (whole entry): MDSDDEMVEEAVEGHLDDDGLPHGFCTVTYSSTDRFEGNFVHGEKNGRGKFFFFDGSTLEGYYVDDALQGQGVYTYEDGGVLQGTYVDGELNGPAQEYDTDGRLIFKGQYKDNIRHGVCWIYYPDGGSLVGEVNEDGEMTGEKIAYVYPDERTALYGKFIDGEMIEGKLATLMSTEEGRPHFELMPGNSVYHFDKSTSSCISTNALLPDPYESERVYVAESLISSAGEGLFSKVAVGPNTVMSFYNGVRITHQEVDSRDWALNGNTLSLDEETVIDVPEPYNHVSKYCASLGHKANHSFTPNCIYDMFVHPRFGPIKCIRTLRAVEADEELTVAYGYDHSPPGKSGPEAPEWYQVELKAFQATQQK
The test can be described thus: Selectivity interaction (Methyltransferase screen (radiometric assays, panel of 8 PRMTs, 21 protein lysine methyltransferases, 3 DNA methyltransferases, and one RNA methyltransferase)) EUB0000271b SETD7.

Test [2] deals with Casein kinase I isoform delta (Homo sapiens, UniProt P48730). The experiment in a line: Selectivity interaction (KinomeScan (DiscoverX)) EUB0000607a CSNK1D. The settings on record: at 10 µM.
Test [3] concerns the target Tyrosine-protein kinase ABL2 (Homo sapiens, UniProt P42684). The experiment in a line: Selectivity interaction (SelectScreen profiling (Invitrogen)) EUB0000607a ABL2. The settings on record: at 2 µM.
For test [4], the target named is Rho-associated protein kinase 1 (Homo sapiens) (UniProt Q13464). The note with it: at 10 µM.
Test [5] has as its target T2, Mitogen-activated protein kinase kinase kinase 12 (Homo sapiens) (UniProt Q12852).
T2 sequence (whole entry): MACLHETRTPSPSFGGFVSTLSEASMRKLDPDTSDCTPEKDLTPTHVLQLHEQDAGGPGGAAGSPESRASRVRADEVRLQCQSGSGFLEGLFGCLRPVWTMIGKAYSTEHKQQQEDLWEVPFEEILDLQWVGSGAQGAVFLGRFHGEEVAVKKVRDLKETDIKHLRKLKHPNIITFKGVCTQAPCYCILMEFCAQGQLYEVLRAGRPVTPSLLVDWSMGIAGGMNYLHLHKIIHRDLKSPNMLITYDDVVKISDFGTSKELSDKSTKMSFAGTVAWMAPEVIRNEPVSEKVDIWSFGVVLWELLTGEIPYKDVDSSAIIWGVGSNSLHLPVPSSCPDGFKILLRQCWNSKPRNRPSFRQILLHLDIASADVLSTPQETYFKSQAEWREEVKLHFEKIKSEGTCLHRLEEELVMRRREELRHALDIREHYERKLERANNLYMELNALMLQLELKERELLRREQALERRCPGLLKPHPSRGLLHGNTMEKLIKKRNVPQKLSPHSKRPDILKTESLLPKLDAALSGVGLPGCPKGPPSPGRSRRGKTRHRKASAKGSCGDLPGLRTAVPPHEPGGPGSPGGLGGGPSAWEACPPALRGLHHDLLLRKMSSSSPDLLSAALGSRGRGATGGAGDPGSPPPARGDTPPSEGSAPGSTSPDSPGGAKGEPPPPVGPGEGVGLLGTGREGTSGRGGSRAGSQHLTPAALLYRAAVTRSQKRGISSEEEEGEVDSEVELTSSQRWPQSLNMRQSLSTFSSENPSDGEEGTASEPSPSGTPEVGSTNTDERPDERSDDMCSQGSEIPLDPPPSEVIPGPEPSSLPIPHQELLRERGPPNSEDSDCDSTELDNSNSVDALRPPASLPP
The settings on record: at 10 µM.

Test [6] addresses T3, Dual specificity mitogen-activated protein kinase kinase 7 (Homo sapiens) (UniProt O14733).
T3 sequence (whole entry): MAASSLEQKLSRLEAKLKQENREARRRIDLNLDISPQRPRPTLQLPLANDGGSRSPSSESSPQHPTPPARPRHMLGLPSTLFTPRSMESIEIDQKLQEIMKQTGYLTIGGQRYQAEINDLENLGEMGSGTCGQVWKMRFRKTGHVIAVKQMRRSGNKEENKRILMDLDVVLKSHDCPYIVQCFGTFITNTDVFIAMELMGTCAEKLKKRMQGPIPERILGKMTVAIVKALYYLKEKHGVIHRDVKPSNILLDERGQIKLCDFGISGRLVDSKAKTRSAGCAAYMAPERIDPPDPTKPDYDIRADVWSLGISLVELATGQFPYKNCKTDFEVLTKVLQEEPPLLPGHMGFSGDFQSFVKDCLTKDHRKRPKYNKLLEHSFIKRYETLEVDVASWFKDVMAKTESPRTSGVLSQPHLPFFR
The experiment in a line: Selectivity interaction (Kinase screening (Nanosyn)) EUB0000604a MAP2K7.

Test [7] addresses Death-associated protein kinase 2 (Homo sapiens) (UniProt Q9UIK4). The note with it: at 10 µM.
Test [8] concerns the target T4, Mitogen-activated protein kinase 13 (Homo sapiens) (UniProt O15264).
T4 sequence (whole entry): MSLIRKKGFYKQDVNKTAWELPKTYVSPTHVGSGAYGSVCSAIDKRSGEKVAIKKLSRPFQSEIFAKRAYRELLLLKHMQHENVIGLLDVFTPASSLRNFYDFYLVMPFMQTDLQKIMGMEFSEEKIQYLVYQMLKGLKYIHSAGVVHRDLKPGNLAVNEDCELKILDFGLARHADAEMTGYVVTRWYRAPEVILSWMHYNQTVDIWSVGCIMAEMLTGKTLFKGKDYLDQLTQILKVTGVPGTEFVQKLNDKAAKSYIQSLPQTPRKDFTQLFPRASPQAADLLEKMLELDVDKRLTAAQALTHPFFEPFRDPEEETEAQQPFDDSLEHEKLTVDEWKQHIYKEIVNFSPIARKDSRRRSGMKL
The test can be described thus: Selectivity interaction (KinomeScan (DiscoverX)) EUB0001049a MAPK13. The note with it: at 1 µM.

Test [9] deals with Bromodomain adjacent to zinc finger domain protein 2A (Homo sapiens, UniProt Q9UIF9).
In test [10] the target is Ribosomal protein S6 kinase alpha-5 (Homo sapiens) (UniProt O75582). The test can be described thus: Selectivity interaction (KinomeScan (DiscoverX)) EUB0000045b RPS6KA5. The settings on record: at 10 µM.
Test [11] addresses Polycomb protein SUZ12 (Homo sapiens) (UniProt Q15022). The experiment in a line: Selectivity interaction (Methyltransferase screen (radiometric assays, panel of 8 PRMTs, 21 protein lysine methyltransferases, 3 DNA methyltransferases, and one RNA methyltransferase)) EUB0000272b SUZ12.

Each structure is given as a SMILES string. A value given as a limit tells only on which side of the number the result lay.

Sequence of Polycomb protein SUZ12 (Homo sapiens) (Q15022 whole entry): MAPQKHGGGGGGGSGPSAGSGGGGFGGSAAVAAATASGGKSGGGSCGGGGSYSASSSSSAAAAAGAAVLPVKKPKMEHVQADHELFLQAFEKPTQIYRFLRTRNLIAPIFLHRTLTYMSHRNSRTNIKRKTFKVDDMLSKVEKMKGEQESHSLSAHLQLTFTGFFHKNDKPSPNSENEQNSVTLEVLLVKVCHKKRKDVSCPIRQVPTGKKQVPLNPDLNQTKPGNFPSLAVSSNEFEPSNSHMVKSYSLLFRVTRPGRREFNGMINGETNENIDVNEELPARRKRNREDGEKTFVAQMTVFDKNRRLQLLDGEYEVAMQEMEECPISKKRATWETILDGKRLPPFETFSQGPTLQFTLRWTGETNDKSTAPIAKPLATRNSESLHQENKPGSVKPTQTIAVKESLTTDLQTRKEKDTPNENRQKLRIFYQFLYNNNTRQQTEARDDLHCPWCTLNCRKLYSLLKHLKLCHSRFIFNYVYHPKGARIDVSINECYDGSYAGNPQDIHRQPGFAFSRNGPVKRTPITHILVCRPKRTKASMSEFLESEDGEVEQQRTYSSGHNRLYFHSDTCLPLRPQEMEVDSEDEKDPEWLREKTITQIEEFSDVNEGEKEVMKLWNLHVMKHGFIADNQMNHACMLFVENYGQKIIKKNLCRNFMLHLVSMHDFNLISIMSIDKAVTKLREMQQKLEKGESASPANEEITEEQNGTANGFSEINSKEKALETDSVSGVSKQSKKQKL
Sequence of Casein kinase I isoform delta (P48730 whole entry, looked up, canonical isoform): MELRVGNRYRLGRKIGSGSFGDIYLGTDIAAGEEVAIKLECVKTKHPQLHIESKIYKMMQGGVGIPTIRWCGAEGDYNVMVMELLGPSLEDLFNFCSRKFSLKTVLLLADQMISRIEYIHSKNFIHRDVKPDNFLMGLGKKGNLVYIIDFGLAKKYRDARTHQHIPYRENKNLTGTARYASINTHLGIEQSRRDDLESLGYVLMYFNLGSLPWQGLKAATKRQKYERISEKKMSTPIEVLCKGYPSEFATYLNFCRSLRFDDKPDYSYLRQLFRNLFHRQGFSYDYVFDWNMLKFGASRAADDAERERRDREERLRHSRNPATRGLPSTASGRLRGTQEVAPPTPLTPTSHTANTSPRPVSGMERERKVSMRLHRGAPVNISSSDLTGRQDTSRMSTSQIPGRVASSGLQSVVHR
Sequence of Bromodomain adjacent to zinc finger domain protein 2A (Q9UIF9 whole entry, the tested form may be a part): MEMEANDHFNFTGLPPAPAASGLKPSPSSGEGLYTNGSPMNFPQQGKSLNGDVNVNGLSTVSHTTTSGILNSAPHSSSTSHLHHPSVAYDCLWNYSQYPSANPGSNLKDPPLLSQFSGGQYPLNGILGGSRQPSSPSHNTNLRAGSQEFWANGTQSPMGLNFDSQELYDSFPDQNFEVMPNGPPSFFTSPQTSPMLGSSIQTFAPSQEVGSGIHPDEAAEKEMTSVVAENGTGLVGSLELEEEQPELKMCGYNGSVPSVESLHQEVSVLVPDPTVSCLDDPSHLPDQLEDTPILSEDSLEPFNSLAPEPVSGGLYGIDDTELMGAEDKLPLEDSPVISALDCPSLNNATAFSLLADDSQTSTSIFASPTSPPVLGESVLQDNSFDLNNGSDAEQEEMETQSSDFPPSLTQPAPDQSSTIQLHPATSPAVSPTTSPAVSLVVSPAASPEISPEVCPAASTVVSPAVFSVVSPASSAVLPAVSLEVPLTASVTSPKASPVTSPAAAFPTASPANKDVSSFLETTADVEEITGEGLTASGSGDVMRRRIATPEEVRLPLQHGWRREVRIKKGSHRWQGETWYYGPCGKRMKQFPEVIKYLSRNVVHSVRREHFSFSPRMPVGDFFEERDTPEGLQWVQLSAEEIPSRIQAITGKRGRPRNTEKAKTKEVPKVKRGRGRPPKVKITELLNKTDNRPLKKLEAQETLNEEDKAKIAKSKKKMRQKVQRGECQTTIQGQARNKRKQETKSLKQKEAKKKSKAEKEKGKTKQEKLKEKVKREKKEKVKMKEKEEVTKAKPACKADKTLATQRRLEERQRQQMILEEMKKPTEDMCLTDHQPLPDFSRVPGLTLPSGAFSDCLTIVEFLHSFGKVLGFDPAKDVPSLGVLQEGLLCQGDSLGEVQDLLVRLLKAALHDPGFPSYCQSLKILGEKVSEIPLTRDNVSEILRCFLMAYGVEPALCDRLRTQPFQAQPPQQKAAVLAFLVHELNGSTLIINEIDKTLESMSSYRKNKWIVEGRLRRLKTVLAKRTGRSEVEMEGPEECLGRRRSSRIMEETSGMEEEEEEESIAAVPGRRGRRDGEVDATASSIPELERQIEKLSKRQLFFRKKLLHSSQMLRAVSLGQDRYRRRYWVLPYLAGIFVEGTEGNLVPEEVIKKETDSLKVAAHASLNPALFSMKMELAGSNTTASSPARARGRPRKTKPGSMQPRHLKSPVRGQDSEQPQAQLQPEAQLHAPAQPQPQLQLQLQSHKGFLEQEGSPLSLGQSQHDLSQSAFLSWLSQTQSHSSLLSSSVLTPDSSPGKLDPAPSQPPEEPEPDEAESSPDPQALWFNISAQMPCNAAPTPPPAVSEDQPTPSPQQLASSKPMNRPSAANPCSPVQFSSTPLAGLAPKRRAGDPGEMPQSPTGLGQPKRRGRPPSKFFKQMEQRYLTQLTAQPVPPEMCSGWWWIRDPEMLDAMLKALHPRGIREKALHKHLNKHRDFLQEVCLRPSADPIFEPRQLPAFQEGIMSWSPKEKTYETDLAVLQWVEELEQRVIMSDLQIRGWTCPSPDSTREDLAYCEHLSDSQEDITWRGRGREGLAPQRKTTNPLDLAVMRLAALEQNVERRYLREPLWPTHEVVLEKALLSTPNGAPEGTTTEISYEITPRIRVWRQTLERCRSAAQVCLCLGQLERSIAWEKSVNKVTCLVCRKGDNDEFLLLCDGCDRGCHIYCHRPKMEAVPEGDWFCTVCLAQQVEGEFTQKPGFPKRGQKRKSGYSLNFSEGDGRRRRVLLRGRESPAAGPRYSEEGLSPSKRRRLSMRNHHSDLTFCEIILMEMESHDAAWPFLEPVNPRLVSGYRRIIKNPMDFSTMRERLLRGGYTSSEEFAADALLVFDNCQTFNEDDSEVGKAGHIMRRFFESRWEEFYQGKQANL
Sequence of Death-associated protein kinase 2 (Homo sapiens) (Q9UIK4 whole entry, looked up): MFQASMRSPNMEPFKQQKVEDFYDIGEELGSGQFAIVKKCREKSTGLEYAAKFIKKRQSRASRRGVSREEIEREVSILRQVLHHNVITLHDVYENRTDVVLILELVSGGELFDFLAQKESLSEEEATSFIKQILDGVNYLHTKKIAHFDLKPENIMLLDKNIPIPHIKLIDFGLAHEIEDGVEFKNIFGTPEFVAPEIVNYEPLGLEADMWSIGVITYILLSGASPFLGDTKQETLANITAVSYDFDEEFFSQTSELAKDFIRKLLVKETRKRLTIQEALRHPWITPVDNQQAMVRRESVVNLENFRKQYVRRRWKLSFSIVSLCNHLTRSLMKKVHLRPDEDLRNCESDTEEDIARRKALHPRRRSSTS
Sequence of Rho-associated protein kinase 1 (Homo sapiens) (Q13464 2-1354 limits assumed): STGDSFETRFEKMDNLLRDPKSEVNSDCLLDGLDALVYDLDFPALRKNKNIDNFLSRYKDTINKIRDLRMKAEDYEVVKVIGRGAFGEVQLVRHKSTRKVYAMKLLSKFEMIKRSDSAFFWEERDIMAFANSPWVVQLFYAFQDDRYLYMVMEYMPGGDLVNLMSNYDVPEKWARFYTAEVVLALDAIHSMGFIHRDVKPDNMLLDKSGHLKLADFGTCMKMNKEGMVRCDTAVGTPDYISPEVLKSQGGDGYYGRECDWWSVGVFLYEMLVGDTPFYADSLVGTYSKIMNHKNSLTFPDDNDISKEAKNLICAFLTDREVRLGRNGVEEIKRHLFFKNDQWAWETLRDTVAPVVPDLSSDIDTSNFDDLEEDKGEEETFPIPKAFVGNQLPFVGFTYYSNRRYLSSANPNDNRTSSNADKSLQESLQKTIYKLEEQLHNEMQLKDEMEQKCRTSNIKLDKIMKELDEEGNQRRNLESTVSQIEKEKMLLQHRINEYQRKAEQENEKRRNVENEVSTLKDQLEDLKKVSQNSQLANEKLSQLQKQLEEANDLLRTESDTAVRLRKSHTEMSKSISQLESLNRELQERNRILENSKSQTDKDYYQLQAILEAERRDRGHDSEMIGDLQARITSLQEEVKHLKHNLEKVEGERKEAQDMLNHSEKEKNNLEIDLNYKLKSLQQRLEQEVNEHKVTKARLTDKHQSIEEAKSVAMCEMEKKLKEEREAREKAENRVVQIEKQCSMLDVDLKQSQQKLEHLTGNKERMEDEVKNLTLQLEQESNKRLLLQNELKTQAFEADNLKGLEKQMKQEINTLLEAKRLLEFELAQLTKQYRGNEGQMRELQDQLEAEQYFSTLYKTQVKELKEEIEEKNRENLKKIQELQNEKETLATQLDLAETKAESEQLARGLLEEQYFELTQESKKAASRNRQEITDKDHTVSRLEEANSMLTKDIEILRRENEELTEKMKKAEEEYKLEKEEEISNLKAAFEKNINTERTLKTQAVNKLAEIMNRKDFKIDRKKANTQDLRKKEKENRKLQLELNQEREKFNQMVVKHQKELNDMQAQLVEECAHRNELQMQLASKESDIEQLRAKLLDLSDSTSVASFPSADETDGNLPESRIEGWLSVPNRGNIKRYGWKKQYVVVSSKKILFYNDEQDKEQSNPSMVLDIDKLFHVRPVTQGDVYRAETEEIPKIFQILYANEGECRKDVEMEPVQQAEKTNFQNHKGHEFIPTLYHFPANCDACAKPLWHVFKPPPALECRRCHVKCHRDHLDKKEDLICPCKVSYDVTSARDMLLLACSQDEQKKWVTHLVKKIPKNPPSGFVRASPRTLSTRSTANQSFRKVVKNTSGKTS

As to `Cc1cc(C)cc([C@@H]2c3cc(C)ccc3NC(=O)CN2C(=O)c2ccc(Br)s2)c1`, the % of activity in test [1] (at 1 µM) was 95.3%; in test [1] (at 10 µM), 95.7%.

`CNC(=O)Nc1ccc(-c2nc(N3CC4CCC(C3)O4)c3cnn(C4CCC5(CC4)OCCO5)c3n2)cc1` registered a % of control in test [2] of 92%. Further, the % of inhibition in test [3] stood at 13%. Consider `Cc1cc([C@@H](C)Nc2ccccc2C(=O)O)c2nc(N3CCOCC3)cc(=O)n2c1` [AZD-6482], for which the % of control was determined as 73% in test [4] and 85% in test [5]. The compound `Cc1cnc(Nc2ccc(F)cc2Cl)nc1-c1c[nH]c(C(=O)N[C@H](CO)c2cccc(Cl)c2)c1` came in with a % of inhibition in test [6] of 6%. On to `CCN(CC)CCCCNc1ncc2cc(-c3cc(OC)cc(OC)c3)c(NC(=O)NC(C)(C)C)nc2n1`, for which, in test [7], the % of control came out at 100%. With `COc1cc(Nc2nc(C)cc(-c3cnn4nc(OC)ccc34)n2)cc(C(F)(F)F)c1`, the % of control in [8] worked out at 95%.

In test [9], `CN(C)CCCOc1ccc(-c2cc(NCCCn3cccn3)nc(S(C)(=O)=O)n2)cc1` displayed a dTM of under 2 K. `C=CC(=O)Nc1cc(-n2c(=O)ccc3cnc4ccc(-c5ccc(NS(C)(=O)=O)cc5)cc4c32)ccc1C` showed a % of control in test [10] of 80%. In the case of `Cc1cc(C)cc([C@H]2c3cc(C)ccc3NC(=O)CN2C(=O)c2ccc(Br)s2)c1`, the % of activity is 102% in [11] (at 1 µM) and 97.3% in [11] (at 10 µM).
